Patent US11173151B2, “Substituted triazole derivatives and uses thereof” (BAYER AKTIENGESELLSCHAFT, priority 2017, dated 2021)

Tests used:
human V1a receptor = target: T1, human V1a receptor (Homo sapiens, UniProt P37288); experiment: Cellular in vitro assay for determining vasopressin receptor activity, V1a receptor cell line (CHO, aequorin luminescence); type: cell-based; details: for IC50: CHO cell line transfected with human V1a receptor, [Arg]-vasopressin at EC50 concentration, read-out: IC50 hV1a; for ratio IC50 hV2/hV1a: selectivity ratio IC50 hV2 / IC50 hV1a
T1 construct: expressed in transfected cells; host or cells: CHO K1 (ATCC), also stably transfected with a modified aequorin
T1 sequence (P37288 whole entry): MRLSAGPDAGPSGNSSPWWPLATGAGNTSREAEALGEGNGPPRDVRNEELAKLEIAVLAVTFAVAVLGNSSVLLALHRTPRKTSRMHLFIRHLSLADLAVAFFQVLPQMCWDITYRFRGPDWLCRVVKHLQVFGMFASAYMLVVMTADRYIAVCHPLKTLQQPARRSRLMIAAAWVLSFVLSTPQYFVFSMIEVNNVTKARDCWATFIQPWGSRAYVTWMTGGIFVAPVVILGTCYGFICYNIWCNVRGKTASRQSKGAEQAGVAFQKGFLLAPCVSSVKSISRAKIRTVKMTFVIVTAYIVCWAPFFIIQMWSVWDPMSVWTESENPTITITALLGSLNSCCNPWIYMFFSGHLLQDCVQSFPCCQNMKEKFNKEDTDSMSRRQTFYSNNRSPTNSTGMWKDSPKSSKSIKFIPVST
In short: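 IC50 from inhibition of [Arg]-vasopressin (EC50 concentration)-evoked aequorin luminescence in CHO K1 cells, with 10-min compound pretreatment.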

human V2 receptor = target: T2, human V2 receptor (Homo sapiens, UniProt P30518); experiment: Cellular in vitro assay for determining vasopressin receptor activity, V2 receptor cell line (CHO, CRE-luciferase); type: cell-based; details: CHO cell line transfected with human V2 receptor; [Arg8]-vasopressin at EC50 concentration, 3 hours; read-out: IC50 hV2
T2 construct: expressed in transfected cells; host or cells: CHO K1 (ATCC) expressing firefly luciferase under a CRE-responsive promoter
T2 sequence (P30518 whole entry): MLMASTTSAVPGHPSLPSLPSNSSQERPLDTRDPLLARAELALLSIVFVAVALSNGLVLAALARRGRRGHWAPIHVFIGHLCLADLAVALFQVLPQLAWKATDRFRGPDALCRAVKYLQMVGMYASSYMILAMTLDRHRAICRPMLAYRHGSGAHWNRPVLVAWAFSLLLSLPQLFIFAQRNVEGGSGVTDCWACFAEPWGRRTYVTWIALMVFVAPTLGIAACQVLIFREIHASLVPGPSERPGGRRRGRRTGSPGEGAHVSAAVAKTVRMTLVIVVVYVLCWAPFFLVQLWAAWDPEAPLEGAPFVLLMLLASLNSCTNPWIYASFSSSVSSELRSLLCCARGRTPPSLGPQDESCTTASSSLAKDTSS

IC50 (human V1a receptor) [nM]	ratio IC50 hV2/hV1a (human V1a receptor)	IC50 (human V2 receptor) [nM]	Structure (SMILES)
3.95	23.7	93.5	O=C(Nc1ccc(F)cc1O)c1ccccc1-n1cnc(Cn2nc(-c3ccc(Cl)cc3)n(C[C@H](O)C(F)(F)F)c2=O)n1 [Example 217, 2-[3-({3-(4-Chlorophenyl)-5-oxo-4-[(2S)-3,3,3-trifluoro-2-hydroxypropyl]-4,5-dihydro-1H-1,2,4-triazol-1-yl}methyl)-1H-1,2,4-triazol-1-yl]-N-(4-fluoro-2-hydroxyphenyl)benzamide]
0.32	24.4	7.8	O=C(Nc1n[nH]cc1Cl)c1ccccc1-n1cnc(Cn2nc(-c3ccc(Cl)cc3)n(C[C@H](O)C(F)(F)F)c2=O)n1 [Example 218, 2-[3-({3-(4-Chlorophenyl)-5-oxo-4-[(2S)-3,3,3-trifluoro-2-hydroxypropyl]-4,5-dihydro-1H-1,2,4-triazol-1-yl}methyl)-1H-1,2,4-triazol-1-yl]-N-(4-chloro-1H-pyrazol-3-yl)benzamide]
21	2.0	41.5	O=C(Nc1cccc[n+]1[O-])c1ccccc1-n1cnc(Cn2nc(-c3ccc(Cl)cc3)n(C[C@H](O)C(F)(F)F)c2=O)n1 [Example 219, 2-[3-({3-(4-Chlorophenyl)-5-oxo-4-[(2S)-3,3,3-trifluoro-2-hydroxypropyl]-4,5-dihydro-1H-1,2,4-triazol-1-yl}methyl)-1H-1,2,4-triazol-1-yl]-N-(1-oxidopyridin-2-yl)benzamide]
3.65	58.9	215	Cc1cncc(NC(=O)c2ccccc2-n2cnc(Cn3nc(-c4ccc(Cl)cc4)n(C[C@H](O)C(F)(F)F)c3=O)n2)c1 [Example 220, 2-[3-({3-(4-Chlorophenyl)-5-oxo-4-[(2S)-3,3,3-trifluoro-2-hydroxypropyl]-4,5-dihydro-1H-1,2,4-triazol-1-yl}methyl)-1H-1,2,4-triazol-1-yl]-N-(5-methylpyridin-3-yl)benzamide]
4.95	92.9	460	Cc1ncccc1NC(=O)c1ccccc1-n1cnc(Cn2nc(-c3ccc(Cl)cc3)n(C[C@H](O)C(F)(F)F)c2=O)n1 [Example 221, 2-[3-({3-(4-Chlorophenyl)-5-oxo-4-[(2S)-3,3,3-trifluoro-2-hydroxypropyl]-4,5-dihydro-1H-1,2,4-triazol-1-yl}methyl)-1H-1,2,4-triazol-1-yl]-N-(2-methylpyridin-3-yl)benzamide]
4.85	38.1	185	CC1CCC(C)C1NC(=O)c1ccccc1-n1cnc(Cn2nc(-c3ccc(Cl)cc3)n(C[C@H](O)C(F)(F)F)c2=O)n1 (stereo partly drawn) [Example 222, 2-[3-({3-(4-Chlorophenyl)-5-oxo-4-[(2S)-3,3,3-trifluoro-2-hydroxypropyl]-4,5-dihydro-1H-1,2,4-triazol-1-yl}methyl)-1H-1,2,4-triazol-1-yl]-N-(2,5-dimethylcyclopentyl)benzamide]
1.5	0.8	1.15	O=C(Nc1nccs1)c1ccccc1-n1cnc(Cn2nc(-c3ccc(Cl)cc3)n(C[C@H](O)C(F)(F)F)c2=O)n1 [Example 223, 2-[3-({3-(4-Chlorophenyl)-5-oxo-4-[(2S)-3,3,3-trifluoro-2-hydroxypropyl]-4,5-dihydro-1H-1,2,4-triazol-1-yl}methyl)-1H-1,2,4-triazol-1-yl]-N-(1,3-thiazol-2-yl)benzamide]
5.5	38.2	210	NC(=O)CNC(=O)c1ccccc1-n1cnc(Cn2nc(-c3ccc(Cl)cc3)n(C[C@H](O)C(F)(F)F)c2=O)n1 [Example 225, N-(2-Amino-2-oxoethyl)-2-[3-({3-(4-chlorophenyl)-5-oxo-4-[(2S)-3,3,3-trifluoro-2-hydroxypropyl]-4,5-dihydro-1H-1,2,4-triazol-1-yl}methyl)-1H-1,2,4-triazol-1-yl]benzamide]
1.3	5.7	7.45	O=C(Nc1ccc(Cl)nc1)c1ccccc1-n1cnc(Cn2nc(-c3ccc(Cl)cc3)n(C[C@H](O)C(F)(F)F)c2=O)n1 [Example 226, 2-[3-({3-(4-Chlorophenyl)-5-oxo-4-[(2S)-3,3,3-trifluoro-2-hydroxypropyl]-4,5-dihydro-1H-1,2,4-triazol-1-yl}methyl)-1H-1,2,4-triazol-1-yl]-N-(6-chloropyridin-3-yl)benzamide]
1.21	55.8	67.5	O=C(Nc1cccc(O)c1)c1ccccc1-n1cnc(Cn2nc(-c3ccc(Cl)cc3)n(C[C@H](O)C(F)(F)F)c2=O)n1 [Example 227, 2-[3-({3-(4-Chlorophenyl)-5-oxo-4-[(2S)-3,3,3-trifluoro-2-hydroxypropyl]-4,5-dihydro-1H-1,2,4-triazol-1-yl}methyl)-1H-1,2,4-triazol-1-yl]-N-(3-hydroxyphenyl)benzamide]
5.65	26.5	150	Cc1cc(NC(=O)c2ccccc2-n2cnc(Cn3nc(-c4ccc(Cl)cc4)n(C[C@H](O)C(F)(F)F)c3=O)n2)ccc1F [Example 228, 2-[3-({3-(4-Chlorophenyl)-5-oxo-4-[(2S)-3,3,3-trifluoro-2-hydroxypropyl]-4,5-dihydro-1H-1,2,4-triazol-1-yl}methyl)-1H-1,2,4-triazol-1-yl]-N-(4-fluoro-3-methylphenyl)benzamide]
2.35	21.1	49.5	Cc1ccc(F)cc1NC(=O)c1ccccc1-n1cnc(Cn2nc(-c3ccc(Cl)cc3)n(C[C@H](O)C(F)(F)F)c2=O)n1 [Example 229, 2-[3-({3-(4-Chlorophenyl)-5-oxo-4-[(2S)-3,3,3-trifluoro-2-hydroxypropyl]-4,5-dihydro-1H-1,2,4-triazol-1-yl}methyl)-1H-1,2,4-triazol-1-yl]-N-(5-fluoro-2-methylphenyl)benzamide]
8.5	6.6	56.5	Cc1ccnc(NC(=O)c2ccccc2-n2cnc(Cn3nc(-c4ccc(Cl)cc4)n(C[C@H](O)C(F)(F)F)c3=O)n2)c1 [Example 230, 2-[3-({3-(4-Chlorophenyl)-5-oxo-4-[(2S)-3,3,3-trifluoro-2-hydroxypropyl]-4,5-dihydro-1H-1,2,4-triazol-1-yl}methyl)-1H-1,2,4-triazol-1-yl]-N-(4-methylpyridin-2-yl)benzamide]
2.2	243.2	535	CONC(=O)c1ccccc1-n1cnc(Cn2nc(-c3ccc(Cl)cc3)n(C[C@H](O)C(F)(F)F)c2=O)n1 [Example 232, 2-[3-({3-(4-Chlorophenyl)-5-oxo-4-[(2S)-3,3,3-trifluoro-2-hydroxypropyl]-4,5-dihydro-1H-1,2,4-triazol-1-yl}methyl)-1H-1,2,4-triazol-1-yl]-N-methoxybenzamide]
14.4	463.7	6700	N[C@H]1CCCC[C@@H]1NC(=O)c1ccccc1-n1cnc(Cn2nc(-c3ccc(Cl)cc3)n(C[C@H](O)C(F)(F)F)c2=O)n1 [Example 233, N-[(1S,2S)-2-Aminocyclohexyl]-2-[3-({3-(4-chlorophenyl)-5-oxo-4-[(2S)-3,3,3-trifluoro-2-hydroxypropyl]-4,5-dihydro-1H-1,2,4-triazol-1-yl}methyl)-1H-1,2,4-triazol-1-yl]benzamide]
6.95	417.3	2900	N[C@@H]1CCCC[C@@H]1NC(=O)c1ccccc1-n1cnc(Cn2nc(-c3ccc(Cl)cc3)n(C[C@H](O)C(F)(F)F)c2=O)n1 [Example 234, N-[(1S,2R)-2-Aminocyclohexyl]-2-[3-({3-(4-chlorophenyl)-5-oxo-4-[(2S)-3,3,3-trifluoro-2-hydroxypropyl]-4,5-dihydro-1H-1,2,4-triazol-1-yl}methyl)-1H-1,2,4-triazol-1-yl]benzamide]
8.7	40.8	355	O=C(NCc1ccc(F)cc1)c1ccccc1-n1cnc(Cn2nc(-c3ccc(Cl)cc3)n(C[C@H](O)C(F)(F)F)c2=O)n1 [Example 235, 2-[3-({3-(4-Chlorophenyl)-5-oxo-4-[(2S)-3,3,3-trifluoro-2-hydroxypropyl]-4,5-dihydro-1H-1,2,4-triazol-1-yl}methyl)-1H-1,2,4-triazol-1-yl]-N-(4-fluorobenzyl)benzamide]
7.05	48.2	340	O=C(NCc1cccc(F)c1)c1ccccc1-n1cnc(Cn2nc(-c3ccc(Cl)cc3)n(C[C@H](O)C(F)(F)F)c2=O)n1 [Example 236, 2-[3-({3-(4-Chlorophenyl)-5-oxo-4-[(2S)-3,3,3-trifluoro-2-hydroxypropyl]-4,5-dihydro-1H-1,2,4-triazol-1-yl}methyl)-1H-1,2,4-triazol-1-yl]-N-(3-fluorobenzyl)benzamide]
15.5	28.7	445	C[C@H](NC(=O)c1ccccc1-n1cnc(Cn2nc(-c3ccc(Cl)cc3)n(C[C@H](O)C(F)(F)F)c2=O)n1)C(N)=O [Example 237, N-[(2S)-1-Amino-1-oxopropan-2-yl]-2-[3-({3-(4-chlorophenyl)-5-oxo-4-[(2S)-3,3,3-trifluoro-2-hydroxypropyl]-4,5-dihydro-1H-1,2,4-triazol-1-yl}methyl)-1H-1,2,4-triazol-1-yl]benzamide]
13.5	3.3	44.5	Cc1nnc(NC(=O)c2ccccc2-n2cnc(Cn3nc(-c4ccc(Cl)cc4)n(C[C@H](O)C(F)(F)F)c3=O)n2)s1 [Example 238, 2-[3-({3-(4-Chlorophenyl)-5-oxo-4-[(2S)-3,3,3-trifluoro-2-hydroxypropyl]-4,5-dihydro-1H-1,2,4-triazol-1-yl}methyl)-1H-1,2,4-triazol-1-yl]-N-(5-methyl-1,3,4-thiadiazol-2-yl)benzamide]
